This passage reports LD50 and selectivity ratio results from patent US4505908A, “7-Bromo-5-(2-halophenyl)-1H-2,3-dihydro-1,4-benzodiazepine pharmaceuticals” (priority 1981, dated 1985).

Molecules are shown by their SMILES.

Data set [1] can be described thus: Acute Toxicity (7-day, single application per os). To be noted: in vivo, po, single application p.o., NMRI mouse on an empty stomach. On the procedure: The acute 7-day toxicity is determined after a single application per os on the white NMRI mouse, on an empty stomach, and the LD50 values are calculated by means of electronic data processing through a probit analysis.

Data set [2] in a line: Rotating rod test (muscular coordination impairing activity). To be noted: mouse, in vivo, po. As for the experimental part:
The ability of muscular coordination is determined in the mouse by the rotating rod test according to Blum (1973).
For this test, only male NMRI mice are used, which can support themselves for five minutes on a rotating rod with a diameter of 4 cm at a rotational speed of 12 rotations per minute.
The test substances are administered orally to the animals one hour before the commencement of the test in the form of a 2% suspension in tylose solution. The animals are each placed twice for a period of 60 seconds onto the rotating rod. Animals which cannot support themselves on the rotating rod for a total of 110 seconds are regarded as having impaired muscular coordination. The dose which brings about an impairment in 50% of the animals is regarded as the ED50.
(§1) In columns 5 and 6 of the Table, the quotients which result from dividing the doses impairing muscular coordination or muscle tone by the anxiolytically effective doses are indicated.

Data set [3] in a line: Traction test (muscle relaxant activity / disturbance of muscle tone). The note with it: mouse, in vivo, po. As for the experimental part:
In this test the influence of the test substances on the muscle tone is evaluated. The test substance is administered orally to mice. After 120 minutes the mice are suspended by their front paws on a thin, horizontally taut wire. The dose at which exactly half the animals fail to also grasp the wire with their hind paws within 5 seconds is regarded as the ED50.
as §1

For the compound `COCC1CN=C(c2ccccc2Cl)c2cc(Br)ccc2N1C` (stereo not drawn), the LD50 at 168 h in data set [1] was more than 1470 mg/kg. Also, the figures for the selectivity ratio in data set [2] and in data set [3] were 1.11 and 7.38, respectively.

The compound `CN1c2ccc(Br)cc2C(c2ccccc2Cl)=NCC1CO` (stereo not drawn) yielded an LD50 at 168 h in data set [1] of more than 1470 mg/kg. In addition, the selectivity ratio in data set [2] stood at 1.3; in data set [3], 38.8.

`COCC1CN=C(c2ccccc2Cl)c2cc(Br)ccc2N1` (stereo not drawn) [Ex 2, 7-Bromo-2-methoxymethyl-5-(2-chlorophenyl)-1H-2,3-dihydro-1,4-benzodiazepin] gave an LD50 at 168 h in data set [1] of 1330 mg/kg. Further, the selectivity ratio in data set [2] was found to be 5.38; in data set [3] it was 54.2.

Take `OCC1CN=C(c2ccccc2Cl)c2cc(Br)ccc2N1` (stereo not drawn) [Ex 4, 7-Bromo-2-hydroxymethyl-5-(2-chlorophenyl)-1H-2,3-dihydro-1,4-benzodiazepine]: in data set [1], the LD50 at 168 h is more than 1370 mg/kg. Further, the selectivity ratio was found to be 8.6 in data set [2] and 164 in data set [3].

As usually defined, the LD50 is the dose expected to kill half of the subjects tested. Higher therefore signals a less toxic substance.
